What all share (format): biochemical
Test [1] addresses T1, mouse PDGF-β receptor tyrosine kinase (Mus musculus, UniProt P05622).
T1 construct: amplify a fragment of DNA that codes for the intracellular tyrosine kinase domain; made in house; host or cells: SF9 insect cells (baculovirus)
The experiment in a line: PDGF receptor tyrosine kinase assay (32P incorporation into glutamate-tyrosine co-polymer). The conditions noted are these: for inhibition at 50 µM: read-out: PDGFr-TK % Inhibition at 50 µM; for IC50: read-out: PDGFr-TK IC50. From the text: (§1) Full length cDNAs for the mouse PDGF-β and human FGF-1 (flg) receptor tyrosine kinases were obtained from J. Escobedo and prepared as described in J. Biol. Chem., 262:1482-1487 […], and PCR primers were designed to amplify a fragment of DNA that codes for the intracellular tyrosine kinase domain. The fragment was melded into a baculovirus vector, cotransfected with AcMNPV DNA, and the recombinant virus isolated. SF9 insect cells were infected with the virus to overexpress the protein, and the cell lysate was used for the assay. The assay was performed in 96-well plates (100 µL/incubation/well), and conditions were optimized to measure the incorporation of ^32P from γ^32P-ATP into a glutamate-tyrosine co-polymer substrate. Briefly, to each well was added 82.5 µL of incubation buffer containing 25 mM Hepes (pH 7.0), 150 mM NaCl, 0.1% Triton X-100, 0.2 mM PMSF, 0.2 mM Na3VO4, 10 mM MnCl2, and 750 µg/mL of Poly (4:1) glutamate-tyrosine followed by 2.5 µL of inhibitor and 5µL of enzyme lysate (7.5 µg/µL FGF-TK or 6.0 µg/µL PDGF-TK) to initiate the reaction. Following a 10 minute incubation at 25°C, 10 µL of γ^32P-ATP (0.4 µCi plus 50 µM ATP) was added to each well and samples were incubated for an additional 10 minutes at 25°C. The reaction was terminated by the addition of 100 µL of 30% trichloroacetic acid (TCA) containing 20 mM sodium pyrophosphate and precipitation of material onto glass fiber filter mats (Wallac). […] Nonspecific activity was defined as radioactivity retained on the filters following incubation of samples with buffer alone (no enzyme). Specific enzymatic activity was defined as total activity (enzyme plus buffer) minus nonspecific activity.

Test [2] has as its target T2, human FGF-1 (flg) receptor tyrosine kinase (Homo sapiens, UniProt P11362).
T2 construct: amplify a fragment of DNA that codes for the intracellular tyrosine kinase domain; made in house; host or cells: SF9 insect cells (baculovirus)
The experiment in a line: FGF receptor tyrosine kinase assay (32P incorporation into glutamate-tyrosine co-polymer). The conditions noted are these: for inhibition at 50 µM: read-out: FGFr-TK % Inhibition at 50 µM; for IC50: read-out: FGFr-TK IC50.
From the text: as §1

Test [3] concerns the target T3, C-src kinase (Homo sapiens, UniProt P12931).
T3 construct: made in house; host or cells: baculovirus infected insect cells
Put plainly: C-src kinase assay (poly GluTyr substrate). The conditions noted are these: for inhibition at 50 µM: read-out: C-src TK % Inhibition at 50 µM. As for the experimental part:
V-src or C-src kinase is purified from baculovirus infected insect cell lysates using an antipeptide monoclonal antibody directed against the N-terminal 2-17 amino acids. The antibody, covalently linked to 0.65-µm latex beads, is added to a suspension of insect cell lysis buffer comprised of 150 mM NaCl, 50 mM Tris pH 7.5, 1 mM DTT, 1% NP-40, 2 mM EGTA, 1 mM sodium vanadate, 1 mM PMSF, 1 µg/mL each of leupeptin, pepstatin, and aprotinin. […] At the end of the lysate incubation, the beads are rinsed 3 times in lysis buffer, resuspended in lysis buffer containing 10% glycerol, and frozen. These latex beads are thawed, rinsed 3 times in assay buffer which is comprised of 40 mM tris pH 7.5, 5 mM MgCl2, and suspended in the same buffer. In a Millipore 96-well plate with a 0.65 µm polyvinylidine membrane bottom are added the reaction components: 10-µL V-src or C-src beads, 10 µL of 2.5 mg/mL poly GluTyr substrate, 5 µM ATP containing 0.2 µCi labeled ^32P-ATP, 5µL DMSO containing inhibitors or as a solvent control, and buffer to make the final volume 125 µL. The reaction is started at room temperature by addition of the ATP and quenched 10 minutes later by the addition of 125 µL of 30% TCA, 0.1 M sodium pyrophosphate for 5 minutes on ice. […] The filters are punched, counted in a liquid scintillation counter, and the data examined for inhibitory activity in comparison to a known inhibitor such as erbstatin.

The target in test [4] is T4, Human EGF receptor tyrosine kinase (Homo sapiens, UniProt P00533).
T4 construct: Human EGF receptor tyrosine kinase was isolated from A431 epidermoid carcinoma cells; endogenous in cells; host or cells: A431 epidermoid carcinoma cells
Put plainly: EGF receptor tyrosine kinase enzyme assay (substrate peptide phosphorylation). The conditions noted are these: for IC50: read-out: EGF-FL IC50; for inhibition at 50 µM: read-out: EGF-FL % Inhibition at 50 µM. As for the experimental part:
Human EGF receptor tyrosine kinase was isolated from A431 epidermoid carcinoma cells by the following methods. Cells were grown in roller bottles in 50% Dulbecco's Modified Eagle medium and 50% HAM F-12 nutrient media (Gibco) containing 10% fetal calf serum. Approximately 10^9 cells were lysed in two volumes of buffer containing 20 mM 2-(4N-[2-hydroxymethyl]-piperazin-1-yl)ethanesulfonic acid, pH 7.4, 5 mM ethylene glycol bis(2-aminoethyl ether) N,N,N',N'-tetraacetic acid, 1% Triton X-100, 10% glycerol, 0.1 mM sodium orthovanadate, 5 mM sodium fluoride, 4 mM pyrophosphate, 4 mM benzamide, 1 mM dithiothreitol, 80 µg/mL aprotinin, 40 µg/mL leupeptin, and 1 mM phenylmethylsulfonyl fluoride. […] Contaminating proteins were washed from the resin with 1 M NaCl in equilibration buffer, and the enzyme was eluted with 0.5 M N-acetyl-1-D-glucosamine in equilibration buffer.
The reaction was terminated by the addition of 2 mL of 75 mM phosphoric acid and passed through a 2.5-cm phosphocellulose filter disc to bind the peptide. The filter was washed 5 times with 75 mM phosphoric acid and placed in a vial along with 5 mL of scintillation fluid (Ready gel Heckman).

Where two headings read alike, the source gives them in different places.

T4 sequence (P00533 25-1210): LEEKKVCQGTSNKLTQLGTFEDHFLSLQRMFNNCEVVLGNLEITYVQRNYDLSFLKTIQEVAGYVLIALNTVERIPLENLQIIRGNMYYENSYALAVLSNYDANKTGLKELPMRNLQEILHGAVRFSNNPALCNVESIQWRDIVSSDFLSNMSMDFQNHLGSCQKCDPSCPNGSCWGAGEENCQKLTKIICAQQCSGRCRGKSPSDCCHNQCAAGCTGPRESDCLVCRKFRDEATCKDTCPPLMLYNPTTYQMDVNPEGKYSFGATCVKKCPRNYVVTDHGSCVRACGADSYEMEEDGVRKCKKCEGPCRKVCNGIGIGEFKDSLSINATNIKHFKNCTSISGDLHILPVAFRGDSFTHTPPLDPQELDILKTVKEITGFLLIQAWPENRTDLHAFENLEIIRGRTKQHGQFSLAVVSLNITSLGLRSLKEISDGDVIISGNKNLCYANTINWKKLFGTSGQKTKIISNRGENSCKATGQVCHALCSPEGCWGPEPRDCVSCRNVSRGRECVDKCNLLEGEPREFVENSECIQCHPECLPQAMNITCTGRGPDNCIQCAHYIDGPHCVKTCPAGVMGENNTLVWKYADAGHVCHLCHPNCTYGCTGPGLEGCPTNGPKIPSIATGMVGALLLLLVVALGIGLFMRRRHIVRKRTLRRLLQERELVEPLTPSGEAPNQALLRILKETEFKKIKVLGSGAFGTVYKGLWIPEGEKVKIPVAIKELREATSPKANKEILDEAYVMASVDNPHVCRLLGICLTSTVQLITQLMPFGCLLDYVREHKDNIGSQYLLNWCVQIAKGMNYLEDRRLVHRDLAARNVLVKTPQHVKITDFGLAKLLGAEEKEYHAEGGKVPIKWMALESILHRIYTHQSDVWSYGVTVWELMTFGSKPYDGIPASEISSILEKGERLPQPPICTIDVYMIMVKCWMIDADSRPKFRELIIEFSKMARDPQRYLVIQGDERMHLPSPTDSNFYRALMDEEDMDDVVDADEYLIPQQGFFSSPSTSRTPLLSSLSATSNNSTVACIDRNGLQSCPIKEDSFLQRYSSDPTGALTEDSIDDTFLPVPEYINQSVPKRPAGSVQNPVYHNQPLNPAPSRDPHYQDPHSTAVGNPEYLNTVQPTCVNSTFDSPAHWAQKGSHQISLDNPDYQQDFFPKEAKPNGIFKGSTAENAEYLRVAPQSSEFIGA
T2 sequence (P11362 478-767 limits assumed): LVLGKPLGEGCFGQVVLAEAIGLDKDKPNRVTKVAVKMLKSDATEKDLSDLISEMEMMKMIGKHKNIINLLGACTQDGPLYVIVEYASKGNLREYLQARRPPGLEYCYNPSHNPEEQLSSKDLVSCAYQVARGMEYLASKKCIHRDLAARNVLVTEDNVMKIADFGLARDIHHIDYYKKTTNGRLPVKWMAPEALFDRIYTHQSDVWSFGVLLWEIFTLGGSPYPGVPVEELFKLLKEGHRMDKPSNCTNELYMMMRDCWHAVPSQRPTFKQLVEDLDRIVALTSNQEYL
T3 sequence (P12931 whole entry): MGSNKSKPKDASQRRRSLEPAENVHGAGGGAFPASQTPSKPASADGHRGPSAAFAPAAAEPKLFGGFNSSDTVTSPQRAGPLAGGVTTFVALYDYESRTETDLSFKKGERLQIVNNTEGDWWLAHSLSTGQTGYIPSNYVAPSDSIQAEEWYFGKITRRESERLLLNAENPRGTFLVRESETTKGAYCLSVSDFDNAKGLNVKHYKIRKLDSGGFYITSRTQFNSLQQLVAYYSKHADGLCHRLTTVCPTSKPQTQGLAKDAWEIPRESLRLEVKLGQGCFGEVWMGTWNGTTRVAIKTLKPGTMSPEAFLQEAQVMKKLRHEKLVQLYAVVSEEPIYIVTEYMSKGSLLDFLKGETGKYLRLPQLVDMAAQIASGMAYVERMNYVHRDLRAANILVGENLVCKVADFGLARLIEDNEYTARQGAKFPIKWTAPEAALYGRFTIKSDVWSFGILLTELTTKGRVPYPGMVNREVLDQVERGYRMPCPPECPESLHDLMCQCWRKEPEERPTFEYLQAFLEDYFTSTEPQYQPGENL
T1 sequence (P05622 599-961 limits assumed): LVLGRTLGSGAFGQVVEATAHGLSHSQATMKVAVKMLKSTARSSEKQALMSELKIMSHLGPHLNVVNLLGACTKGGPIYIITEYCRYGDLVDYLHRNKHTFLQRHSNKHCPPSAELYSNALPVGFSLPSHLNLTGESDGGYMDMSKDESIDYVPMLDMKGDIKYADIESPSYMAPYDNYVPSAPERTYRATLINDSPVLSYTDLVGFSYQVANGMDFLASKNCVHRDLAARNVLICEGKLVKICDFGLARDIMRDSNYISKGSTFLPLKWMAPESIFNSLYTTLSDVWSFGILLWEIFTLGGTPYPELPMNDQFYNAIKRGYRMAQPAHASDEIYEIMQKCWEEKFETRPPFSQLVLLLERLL

As a reminder, the inhibition is the drop in the measured response relative to a control, in per cent. Turning to `CCn1c(=O)c(-c2cc(C)cc(C)c2)cc2cnc(Nc3ccccc3)nc21` [Example 118, 6-(3,5-Dimethylphenyl)-8-ethyl-2-phenylamino-8H-pyrido[2,3-d]pyrimidin-7-one], the inhibition at 50 µM worked out at 12% in test [1], 29% in test [2] and 0% in test [3].
What is called IC50 is the concentration needed to halve the response being measured. As to `CC(C)(C)OC(=O)Cn1c(=O)c(-c2c(Cl)cccc2Cl)cc2cnc(N)nc21` [Example 36, [2-Amino-6-(2,6-dichlorophenyl)-7-oxo-7H-pyrido[2,3-d]-pyrimidin-8-yl]-acetic acid tert-butyl ester], the IC50 came out at 7.53 µM in test [1], 1.45 µM in test [2] and 560 nM in test [3] (read-out: C-src TK IC50).
For the compound `CCn1c(=O)c(-c2ccncc2)cc2cnc(Nc3ccccc3)nc21` [Example 120, 8-Ethyl-2-phenylamino-6-pyridin-4-yl-8H-pyrido[2,3-d]-pyriminin-7-one], in test [1], the IC50 came to 1.83 µM. Also, the inhibition at 50 µM was 2% in test [2] and 29% in test [3].
Take `CCOC(=O)c1cccc(Nc2ncc3cc(-c4c(Cl)cccc4Cl)c(=O)n(C)c3n2)c1` [Example 89, 3-[6-(2,6-Dichlorophenyl)-8-methyl-7-oxo-7,8-dihydro-pyrido[2,3-d]pyrimidin-2-ylamino]-benzoic acid, ethyl ester]: the IC50 was determined as 1.48 µM in test [1], 1.49 µM in test [2] and 14 nM in test [3] (read-out: C-src TK IC50).
Consider `Cn1c(=O)c(-c2c(Cl)cccc2Cl)cc2cnc(Nc3cccc(O)c3)nc21` [Example 87, 6-(2,6-Dichlorophenyl)-2-(3-hydroxyphenylamino)-8-methyl-8H-pyrido[2,3-d]pyrimidin-7-one], for which the IC50 in test [1] worked out at 0.35 µM; in test [4], 140 nM.
For the compound `Nc1ncc2cc(-c3c(Cl)cccc3Cl)c(=O)n(CC(=O)O)c2n1` [Example 107, [2-Amino-6-(2,6-dichlorophenyl)-7-oxo-7H-pyrido[2,3-d]-pyrimidin-8-yl]-acetic acid], the inhibition at 50 µM turned out to be 43% in test [1] and 52% in test [3]. Also, the IC50 in test [2] worked out at 9.24 µM.
For the compound `CC(=O)Nc1ncc2cc(-c3c(Cl)cccc3Cl)c(=O)n(C)c2n1` [Example 15, N-[6-(2,6-Dichlorophenyl)-8-methyl-7-oxo-7,8-dihydro-pyrido[2,3-d]pyrimidin-2-yl]acetamide], the half-inhibitory concentration (IC50) is 5.18 µM in test [1], 5.79 µM in test [2] and 4220 nM in test [3] (read-out: C-src TK IC50).
The matching figures for `Cn1c(=O)c(-c2c(Cl)cccc2Cl)cc2cnc(NC(=O)CCC(=O)O)nc21` [Example 16]: 5.45 µM, 6.49 µM and 3100 nM.
In the case of `COc1ccc(Nc2ncc3cc(-c4c(Cl)cccc4Cl)c(=O)n(C)c3n2)cc1` [Example 64, 6-(2,6-Dichlorophenyl)-2-(4-methoxyphenylamino)-8-methyl-8H-pyrido[2,3-d]pyrimidin-7-one], the values for the IC50 in test [1], in test [2] and in test [4] were 0.546 µM, 0.403 µM and 65 nM, respectively.
Turning to `COc1cccc(Nc2ncc3cc(-c4c(Cl)cccc4Cl)c(=O)n(C)c3n2)c1` [Example 72, 6-(2,6-Dichlorophenyl)-2-(3-methoxyphenylamino)-8-methyl-8H-pyrido[2,3-d]pyrimidin-7-one], the concentration for half-maximal inhibition (IC50) in test [3] (read-out: C-src TK IC50) was determined as 52 nM; in test [4], 33 nM.
`CN1CCN(CCCCCNc2ncc3cc(-c4c(Cl)cccc4Cl)c(=O)n(C)c3n2)CC1` [Example 81, 6-(2,6-Dichlorophenyl)-8-methyl-2-[5-(4-methylpiperazin-1-yl)-pentylamino]-8H-pyrido[2,3-d]pyrimdin-7-one]: the IC50 stood at 0.743 µM in test [1] and 4500 nM in test [4]. The inhibition at 50 µM in test [3] came out at 94%.
As to `CCn1c(=O)c(-c2ccc(-c3ccccc3)cc2)cc2cnc(Nc3ccccc3)nc21` [Example 124, 6-Biphenyl-4-yl-8-ethyl-2-phenylamino-8H-pyrido[2,3-d]-pyrimidin-7-one], the results for the inhibition at 50 µM in test [1], in test [2] and in test [3] were 38%, 15% and 11%, respectively.
As to `CCOC(=O)c1ccc(Nc2ncc3cc(-c4c(Cl)cccc4Cl)c(=O)n(C)c3n2)cc1` [Example 88, 4-[6-(2,6-Dichlorophenyl)-8-methyl-7-oxo-7,8-dihydro-pyrido[2,3-d]pyrimidin-2-ylamino]-benzoic acid, ethyl ester], the 50% inhibitory concentration (IC50) in test [1] amounted to 38 µM; in test [2], 69 µM; in test [3] (read-out: C-src TK IC50) it was 95 nM.
On to `Nc1ncc2cc(-c3c(Cl)cccc3Cl)c(=O)n(Cc3ccncc3)c2n1` [Example 113, 2-Amino-6-(2,6-dichlorophenyl)-8-pyridin-4-ylmethyl-8H-pyrido[2,3-d]pyrimidin-7-one], for which the results for the IC50 in test [1] and in test [4] were 1.76 µM and 6700 nM, respectively. Also, the inhibition at 50 µM in test [3] was determined as 87%.
For `Cn1c(=O)c(-c2c(Cl)cccc2Cl)cc2cnc(NCCCN3CCOCC3)nc21` [Example 47, 6-(2,6-Dichlorophenyl)-8-methyl-2-(3-morpholin-4-yl-propylamino)-8H-pyrido[2,3-d]pyrimidin-7-one], in test [1], the half-maximal inhibitory concentration (IC50) amounted to 5.98 µM. The inhibition at 50 µM was found to be 36% in test [3] and 70% in test [4].
Regarding `Cn1c(=O)c(-c2c(Cl)cccc2Cl)cc2cnc(NCCCCCC(=O)OC(C)(C)C)nc21` [Example 61, 6-[6-(2,6-Dichlorophenyl)-8-methyl-7-oxo-7,8-dihydro-pyrido[2,3-d]pyrimidin-2-ylamino]-hexanoic acid, tert-butyl ester], the figures for the concentration for half-maximal inhibition (IC50) in test [1] and in test [2] were 26.5 µM and 8.6 µM, respectively. Further, the inhibition at 50 µM in test [3] was determined as 64%.
Consider `CCn1c(=O)c(-c2c(Cl)cccc2Cl)cc2cnc(N)nc21` [Example 30, 2-Amino-6-(2,6-dichlorophenyl)-8-ethyl-pyrido[2,3-d]-pyrimidin-7(8H)-one], for which the figures for the IC50 in test [1] and in test [3] (read-out: C-src TK IC50) were 0.98 µM and 155 nM, respectively. Moreover, the inhibition at 50 µM in test [4] was determined as 77%.
For the compound `Cn1c(=O)c(-c2c(Cl)cccc2Cl)cc2cnc(NC3CCCCC3)nc21` [Example 60, 2-Cyclohexylamino-6-(2,6-dichlorophenyl)-8-methyl-8H-pyrido[2,3-d]pyrimidin-7-one], the results for the 50% inhibitory concentration (IC50) in test [1], in test [2] and in test [3] (read-out: C-src TK IC50) were 9.38 µM, 6.52 µM and 1640 nM, respectively.
`Nc1ncc2cc(-c3c(Cl)cccc3Cl)c(N)nc2n1` [Example 10, 2,7-Diamino-6-(2,6-dichlorophenyl)-pyrido[2,3-d]-pyrimidine]: the IC50 in test [1] worked out at 21.2 µM; in test [2], 3 µM; in test [3], 225 nM.
